Key:
[1] = test system: P388; test: Cytotoxicity against mouse P388 cells after 72 hrs by MTT assay; format: functional, cell-based; conditions: P388, 72 h
[2] = test system: Bacillus subtilis; test: Antibacterial activity against Bacillus subtilis ATCC 19659 at 30 ug; format: functional; conditions: read-out: IZ
[3] = test system: Trichophyton mentagrophytes; test: Antifungal activity against Trichophyton mentagrophytes ATCC 28185 at 100 IU; format: functional, organism-based
[4] = test system: Amorphotheca resinae; test: Antifungal activity against Cladosporium resinae at 100 IU; format: functional, organism-based

Row | Compound | IC50 [1] [µM] | further results
1 | COc1cc2c3c(ccc(-c4ccccc4)c3c1OC)C(=O)OC2=O | > 26 | –
2 | O=C(N[C@H](CO)[C@H](O)c1ccc([N+](=O)[O-])cc1)C(Cl)Cl [CHLORAMPHENICOL] | – | zone of inhibition at 30 µg/disc [2]: 12 mm
3 | COC1=Cc2cc(O)c(O[C@@H]3O[C@H](CO)[C@@H](O)[C@H](O)[C@H]3O)c3c(-c4ccccc4)ccc(c23)C1=O [DILATRIN] | > 26 | –
4 | COc1c(O)cc2c3c(ccc(-c4ccc(O)cc4)c13)C(=O)OC2=O [HAEMODOROL] | > 26 | –
5 | COc1c(O)cc2c3c(ccc(-c4ccccc4)c13)C(=O)OC2=O [HAEMODORONE] | > 26 | –
6 | COc1cc2c3c(ccc(-c4ccccc4)c3c1O[C@@H]1O[C@H](CO)[C@@H](O)[C@H](O)[C@H]1O)C(=O)OC2 [HAEMODOROSE] | > 26 | –
7 | COC1=Cc2cc(OC)c(O)c3c(-c4ccccc4)ccc(c23)C1=O [XIPHIDONE] | > 26 | –
8 | NYSTATIN | – | inhibition zone (IZ) [3]: 6 mm; inhibition zone (IZ) [4]: 10 mm
